Test results taken from patent publication US20140161915A1, “Solubilization of cucurminoid compounds and products thereof” (priority 2011, published 2014).

What was measured:
[1] = Curcumin dissolution in water (saturated), centrifuged supernatant read by UV-Vis at 405 nm; assay type: physicochemical
DNA = assay: Binding or intercalation to DNA; conditions: heat solubilized
[2] = cited from earlier work
anti-spectrin / spectrin = assay: Inhibition of binding of commercial polyclonal anti-spectrin to spectrin; conditions: heat-solubilized
[3] = test system: 4-hydroxy-2-nonenal-mediated oxidative modification of a protein substrate; assay: Inhibition of 4-hydroxy-2-nonenal-mediated oxidative modification of a protein substrate; assay type: biochemical; conditions: heat-solubilized
[4] = Curcumin dissolution in water (saturated), centrifuged supernatant read by UV-Vis at 405 nm; assay type: physicochemical; remark: listed apart in the source
Protocol: (§1) The autoclave cycle was 70 minutes, of which ˜40 minutes represent actual time under pressure.
That mixture was then combined with 47.5 mL of deionized water to make up a 50 mL solution.

[5] = test system: anti-Ro60 autoantibodies / Ro60 autoantigen; assay: Inhibition of binding of anti-Ro60 autoantibodies to Ro60 autoantigen; design: species or system human; conditions: heat-solubilized
[6] = Ingestion of aqueous solubilized curcumin by four adult males, reported effects; assay type: in vivo, human
Protocol: The study conditions were as follows.
This subject's study was conducted in a completely blind manner: the subject was told nothing about the known or suspected properties but was merely asked to report their observations.

[7] = Stability of dissolved curcumin: hydrolysis at alkaline pH and precipitation over time; assay type: physicochemical; conditions: pressure-dissolved (15 psi, 121° C.) solution
Protocol: For solutions made at room temperature it is difficult to obtain a clear (i.e., solid-free) supernatant even from careful centrifuging. The samples are far more soluble in alkaline water (e.g., pH 7.6), but when placed in phosphate buffered saline (PBS) and serum-free media at modest alkaline pH (pH 7.2, at 37° C.) the curcuminoids are hydrolyzed substantially completely within 30 minutes.
Even so, UV-Visible spectra and mass specta (from matrix assisted laser desorption […] time of flight mass spectrometry, MALDI-TOF-MS) confirmed that the dissolved curcumin was substantially unchanged by the heat treatment. Heat treatment also appears to increase the solubilization of BDMC but (curiously) not DMC.
as §1

[8] = 0.1% Tween-20, room pressure, 100° C. deionized water
[9] = 0.5% Tween-20, 15 psi, 121° C., deionized water
[10] = 2% Tween-20, room pressure, 100° C. deionized water
[11] = 15 psi, 121° C., deionized water, 5 mg/mL present
[12] = 0.1% Tween-20, 15 psi, 121° C., deionized water
[13] = 2% Tween-20, 15 psi, 121° C., deionized water

Compound: COc1cc(/C=C/C(=O)CC(=O)/C=C/c2ccc(O)c(OC)c2)ccc1O [curcumin, 1,7-bis[4-hydroxy-3-methoxyphenyl]-1,6-heptadiene-3,5-dione]
- Dissolution (Approximate) Mass/mL [1, 8]: 22.5 µg/mL
- Dissolution (Approximate) Molarity [1, 8]: 0.061 mM
- Dissolution (Approximate) Mass/mL [1, 9]: 278.1 µg/mL
- Dissolution (Approximate) Mass/mL ([1]; 0.5% Tween-20, room pressure, 100° C. deionized water): 77.44 µg/mL
- Dissolution (Approximate) Mass/mL [1, 10]: 443.52 µg/mL
- Dissolution (Approximate) Molarity [1, 10]: 1.2 mM
- Dissolution (Approximate) Molarity [1, 11]: 0.68 mM
- Intercalation into or binding to DNA (DNA): does not intercalate into or otherwise bind to DNA
- Increase in solubility by heat treatment over unheated ([2]; Kurien et al. (2007): boiling deionized water): 12 fold
- Solubility of curcumin itself ([2]; deionized water at room temperature, dissolved material is DMC and BDMC): insoluble
- Inhibition of binding of commercial polyclonal anti-spectrin to spectrin (anti-spectrin / spectrin): 50%
- Inhibition of 4-hydroxy-2-nonenal-mediated oxidative modification of a protein substrate [3]: 80%
- Dissolution (Approximate) Mass/mL [4, 12]: 44.84 µg/mL
- Dissolution (Approximate) Molarity [4, 12]: 0.12 mM
- Dissolution (Approximate) Molarity [4, 9]: 0.75 mM
- Dissolution (Approximate) Mass/mL [4, 13]: 1556 µg/mL
- Dissolution (Approximate) Molarity [4, 13]: 4.2 mM
- Increase over curcumin dissolved at ambient temperature ([4]; 15 psi, 121° C., 5% ethanol in deionized water): ~100 fold
- Dissolved share of the original amount ([4]; 15 psi, 121° C., 5% ethanol in deionized water, made up to 50 mL): about 12.9%
- Dissolved share of the curcumin initially present [4, 11]: 5%
- Solubilized share of starting curcumin ([4]; autoclaved in water with 2% of a poly(alkyl ether), 50 mL starting solution): 31%
- Inhibition of binding of anti-Ro60 autoantibodies to Ro60 autoantigen ([5]; Sjögren's syndrome sera): up to 43%
- Inhibition of binding of anti-Ro60 autoantibodies to Ro60 autoantigen ([5]; systemic lupus erythematosus (SLE) sera): up to 52%
- Duration of relief from metatarsal arthritic inflammation ([6]; Subject #3, about 100 kg, 20 mL of 350 micromolar sample (autoclave, 5% ethanol), ingested): about 48 hours
- Effect on mood ([6]; four adult males, 5-20 mL of 150-350 micromolar autoclaved aqueous curcumin, ingested): mood elevating effects
- Onset of mood elevating effects ([6]; four adult males, ingested autoclaved aqueous curcumin): almost instantaneously
- Precipitation or turbidity of the solution over time [7]: did not precipitate out or cause the solution to become cloudy or turbid
- Reduction in pristine curcumin ([7]; alkaline pH for 72 hours): 32%
